In patent publication US20080206347A1, “Pharmaceutical Formulations Comprising Active Pharmaceutical Principles Adsorbed on Titanium Dioxide Nanoparticles” (FLAMMA S.P.A., priority 2005, published 2008):
“And” between values parts separate entries of the source, which are not always exact repeats. Equal entries are not always repeated. Where two headings read alike, the source gives them in different places.

Experiments:
[1] = Experimental: (§1) A NMR-based method was developed since alendronate lacks the chromophoric group of risedronate. The NMR experiments were carried out in H2O instead of D2O (or other deuterated solvents) simply using the aqueous solutions obtained after removal of TiO2 by centrifugation without concentration or further treatment. Only a small amount of C6D6 in a sealed capillary tube (reusable) inserted into the NMR tube was required to achieve the field lock. […] To determine the concentration of sodium alendronate in aqueous solutions, a known amount of an internal standard was added before each NMR measurements, namely 1,3,5-triaza-7-phospha-adamantane, a water-soluble phosphine.
Sodium Alendronate trihydrated was adsorbed on TiO2 as described above. After centrifugation, the recovered solid was dried at 40° C./0.1 mbar for 6 h. A suspension of this solid in 50 ml of aqueous HCl (pH 1.0) or NaOH (pH 9.0) was vigorously stirred at the stated temperature in a nitrogen atmosphere. The pH of the basic solution was constantly monitored and maintained at the initial level by addition of 0.05 M NaOH.

[2] = Adsorption of drug on TiO2 nanoparticles; assay type: physicochemical
Experimental: To a stirred solution of Sodium Risedronate (625 mg) in deionized water (100 ml) increasing amounts of nanocrystalline TiO2 were added (ca. 20 nm nanoparticle size). […] This limit probably corresponds to a total surface coverage of the nanoparticles.
190 mg of Sodium Risedronate were adsorbed at 25° C. on 3.00 g of TiO2 nanoparticles having an average diameter of 20-25 nm.
(§2) To an aqueous solution containing 625 mg of Sodium Risedronate in 100 ml of deionized water 3.00 g of TiO2 was added. The suspension was stirred for 72 h at room temperature and then centrifuged at 4000 rpm for 10 min. The solid was suspended twice in a pH 1 HCl solution, stirred for 20 min and centrifuged. The solid was finally dried at 40° C. under vacuum.
as §1
TiO2 (25 nm, 1.00 g) was added to a solution of Sodium Alendronate trihydrated (207 mg, 0.64 mmol) in H2O (50 ml) and the resulting suspension (pH 4.5) was vigorously stirred in the dark at 25° C. for 48 h, then centrifuged (4,000 rpm, 5 min). The cloudy supernatant was recovered, treated with solid NaCl (ca. 3 g), kept at room temperature for 2 h, and centrifuged (4,000 rpm, 5 min). To the resulting solution was added 1,3,5-triaza-7-phospha-adamantane and the concentration of residual sodium alendronate was estimated by ^31P-NMR as described above.

[3] = Desorption of Sodium Risedronate from TiO2 in aqueous solution at different pH; assay type: physicochemical; settings: for amount released, % of the initial concentration on TiO2: pH=8, 25° C.
Experimental: Desorption of Sodium Risedronate from TiO2 at 25° C. was studied in aqueous solution at different pH values.
The desorption as function of time of Sodium Risedronate from TiO2 was studied in aqueous solution at pH 9 and at 36° C.
as §2
Nine separate 30 mg portions of TiO2 adsorbed with Sodium Risedronate were suspended in 10 ml of pH 9 NaOH solutions and left stirring for different times in the range 1-120 min. During drug desorption the pH of the suspension was kept at the original value by small addition of NaOH solution. In all cases the concentration of desorbed drug was corrected for volume changes.

[4] = in vivo; cited from earlier work
[5] = 250 mg of TiO2 carrying 16 mg of drug
[6] = 1.00 g TiO2 (25 nm), 24 h stirring, 25° C.

release to the intestine [1, 5]	Desorption ([1]; pH 1.0, 2 h stirring at 25° C.)	Desorption ([1]; pH 9.0, 30 min stirring at 25° C.)	Desorption ([1]; pH 9.0, 2 h stirring at 25° C.)	Desorption ([1]; pH 9.0, 6 h stirring at 37° C.)	amount adsorbed on TiO2 ([2]; 1.00 g TiO2 (25 nm), 207 mg in 50 ml H2O, 48 h stirring, 25° C.)	amount adsorbed on TiO2 [2, 6]	amount adsorbed, % of the initial amount [2, 6]	amount adsorbed, % of the initial amount ([2]; 1.00 g TiO2 (25 nm), 48 h stirring, 25° C.)	SMILES	amount of drug which can be adsorbed on the surface of the nanocrystalline substrate ([2]; 625 mg in 100 ml deionized water, increasing amounts of TiO2 ca. 20 nm, limit value)	amount adsorbed on TiO2 ([2]; on 3.00 g of TiO2 nanoparticles (20-25 nm), 25° C./room temperature, from 625 mg)	amount of drug released in the intestine [3, 5]	release in the gastroesophageal region [3, 5]	adsorbed drug desorbed ([3]; pH 9, 36° C., after 1 minute)	amount of drug released ([3]; pH 9, 36° C., in the next 60 min)	amount of drug released ([3]; pH 9, 36° C., longer times (up to 120 min), constant)	amount released, % of the initial concentration on TiO2 ([3]; after 30 min)	amount released, % of the initial concentration on TiO2 ([3]; after 2 hours)	oral bioavailability [4]
4 mg	not detected	8%	12%	22% and 16-22%	71 mg	66 mg	32%	34% and 26-34%	NCCCC(O)(P(=O)(O)O)P(=O)(O)O [Sodium Alendronate]										
									O=P(O)(O)C(O)(Cc1cccnc1)P(=O)(O)O [Sodium Risedronate]	31%	190 mg	6 to 9 mg	negligible release	25%	36%	36%	~35%	35%	0.63%
